According to US8168597B2, “Method for treating cystic fibrosis” (Inspire Pharmaceuticals, Inc., priority 2008, dated 2012):

B1: Pulmozyme: CF medication taken as usual standard of care (alfa dornase) (protein, UniProt P24855 23-282, looked up)
Deoxyribonuclease-1: LKIAAFNIQTFGETKMSNATLVSYIVQILSRYDIALVQEVRDSHLTAVGKLLDNLNQDAPDTYHYVVSEPLGRNSYKERYLFVYRPDQVSAVDSYYYDDGCEPCGNDTFNREPAIVRFFSRFTEVREFAIVPLHAAPGDAVAEIDALYDVYLDVQEKWGLEDVMLMGDFNAGCSYVRPSQWSSIRLWTSPTFQWLIPDSADTTATPTHCAYDRIVVAGMLLRGAVVPDSALPFNFQAAYGLSDQLAQAISDHYPVEVMLK

System: patients with mild CF lung disease
Test: Multi-center, double-blind, randomized efficacy and safety study; change in lung function (FEV1) from baseline to Week 24
Assay type: in vivo, human
Conditions: for FEV1 Change from baseline in Liters, Mean (Table 2): subgroups that did not take pulmozyme or inhaled antibiotics; for FEV1 Change from baseline in Liters, Mean (Table 3): pulmozyme/macrolide subgroups
Protocol: This is a multi-center, double-blind, randomized, efficacy and safety study of denufosol in patients with mild CF lung disease. Approximately 350 patients were enrolled and randomly assigned to receive one of two treatments, 60 mg denufosol TID or placebo TID, with approximately 175 patients assigned to each treatment group. Patients were administered study drug (denufosol) or placebo using the PARI LC STAR™ nebulizer and PART PRONEB Ultra™ compressor. At the end of the 24-week double-blind, placebo-controlled treatment period, placebo patients received 60 mg denufosol for a 24-week safety extension period. All patients on denufosol during the first 24 weeks continued to receive denufosol during the 24-week safety extension. Upon completion of study participation or discontinuation from study treatment, all patients were scheduled for a 1-week follow-up visit.
In general, CF patients took many medications as their usual standard of care. This study was designed to randomly assign patients either to denufosol or placebo on top of their usual standard of care. […] Patients were instructed whenever possible to use these medications consistently throughout the study.
All patients were instructed to inhale the study drug using normal tidal breathing via the PARI LC STAR™ reusable nebulizer and the PARI PRONEB™ Ultra compressor. A dose was considered complete after 15 minutes of inhalation or when the nebulizer sputters. Study drug was taken TID at the same time each day.
Primary efficacy endpoint was change in lung function, as measured by FEV1 (L), from baseline to Week 24 end point. Missing Week 24 data for patients who withdrew prior to Week 24 were imputed from the last available observation carried forward. Secondary efficacy endpoints included the following: time to first pulmonary exacerbation during the 24-week placebo-controlled treatment period; incidence of pulmonary exacerbations during the 24-week placebo-controlled treatment period; number of pulmonary exacerbations/time at risk (incidence density) during the 24-week placebo-controlled treatment period; change in lung function, as measured by FEV1 (L) from baseline to Weeks 4 and 12, and FVC (L) and FEF25%-75% (L/sec) from baseline to Weeks 4, 12, 24, and the end point. Other secondary efficacy endpoints include incidence of IV antibiotic use during the 24-week placebo-controlled treatment period; number of days of IV antibiotic use during the 24-week placebo-controlled treatment period; incidence of new use of antipseudomonal antibiotics during the 24-week placebo-controlled treatment period; incidence of hospitalizations/ER visits for a respiratory-related complaint during the 24-week placebo-controlled treatment period; number of days spent in the hospital for a respiratory-related complaint during the 24-week placebo-controlled treatment period; changes from baseline to Weeks 12 and 24 in Health-related Quality of Life as measured by the Cystic Fibrosis Questionnare and the Feeling Thermometer; and changes in utility assessment from baseline to Weeks 12 and 24 as measured by the Health Utilities Index; number of CF-related days lost from work or school during the 24-week placebo-controlled treatment period; and responses at Week 24 to the Patient Questionnaire.

Molecule | FEV1 Change from baseline in Liters, Mean (Table 2) (baseline to Week 24) | adjusted means for change in lung function, as measured by FEV1, from baseline to Week 24 (macrolide users (97% azithromycin), 60 mg denufosol TID by inhalation, p-value 0.047 vs placebo group) | improvement in FEV1 change in the macrolide group when treated with denufosol (vs placebo group) (macrolide users, baseline to Week 24) | FEV1 Change from baseline in Liters, Mean (Table 3) (baseline to Week 24)
Nc1ccn([C@H]2C[C@H](O)[C@@H](COP(=O)(O)OP(=O)(O)OP(=O)(O)OP(=O)(O)OC[C@H]3O[C@@H](n4ccc(=O)[nH]c4=O)[C@H](O)[C@@H]3O)O2)c(=O)n1 [Denufosol, P^1-(uridine 5′-)-P^4-(2′-deoxycytidine 5′-) tetraphosphate] | 0.0494 L | 0.0288 L | +0.0745 L | 
CC[C@H]1OC(=O)[C@H](C)[C@@H](O[C@H]2C[C@@](C)(OC)[C@@H](O)[C@H](C)O2)[C@H](C)[C@@H](O[C@@H]2O[C@H](C)C[C@H](N(C)C)[C@H]2O)[C@](C)(O)C[C@@H](C)CN(C)[C@H](C)[C@@H](O)[C@]1(C)O [Macrolide (Azithromycin), azithromycin, reference compound] | 0.0430 L |  |  | 0.0430 L
B1 |  |  |  | 0.0659 L
